Activity and inhibition data for 14 compounds are collected here from ChEMBL document CHEMBL3046456, “Anti-angiogenic/proliferative behavior of a 4-aryl-4H-chromene on blood vessels endothelial cells: A possible evidence on dual anti-tumor activity” (Med Chem Res, 2011).

The test system of data set [1] is HUVEC. In words: Cytotoxicity against Homo sapiens (human) HUVEC cells after 48 hr by LDH assay. The data set is classed as cell-based.
Data set [2] relates to HUVEC. In words: Antiproliferative activity against Homo sapiens (human) HUVEC cells at 3.11 to 124 uM after 3 days by cell counting analysis. The class given is functional, cell-based.
Data set [3] concerns HUVEC. In words: Cytotoxicity against Homo sapiens (human) HUVEC cells after 48 hr by trypan blue assay. The class given is cell-based.
Data set [4] has as its target Matrix metalloproteinase-9 (Homo sapiens) (UniProt P14780). As to the kind of experiment: Inhibition of MMP9 (unknown origin) at 24.88 uM after 16 hr by gelatin zymographic analysis.
In data set [5] the test system is HUVEC. As to the kind of experiment: Cytotoxicity against Homo sapiens (human) HUVEC cells up to 40 ug/ml after 48 hr by trypan blue assay. The class given is cell-based.
In data set [6] the test system is HUVEC. As to the kind of experiment: Antiangiogenic activity against Homo sapiens (human) HUVEC cells assessed as inhibition of capillary tube formation at 1 ug/ml after 3 days by microscopic analysis. The data set is classed as functional, cell-based.
Data set [7] has as its target Matrix metalloproteinase-9 (Homo sapiens) (UniProt P14780). In words: Inhibition of MMP9 (unknown origin) after 16 hr by gelatin zymographic analysis.
Data set [8] has as its target 72 kDa type IV collagenase (Homo sapiens) (UniProt P08253). In words: Inhibition of MMP2 (unknown origin) at 37.32 uM after 16 hr by gelatin zymographic analysis.
Data set [9] has as its system HUVEC. In words: Antiproliferative activity against Homo sapiens (human) HUVEC cells after 3 days by cell counting analysis. The class given is functional, cell-based.
Data set [10] relates to HUVEC. In words: Antiproliferative activity against Homo sapiens (human) HUVEC cells at 1 ug/ml after 3 days by cell counting analysis. The data set is classed as functional, cell-based.
For data set [11], the system named is HUVEC. As to the kind of experiment: Antiproliferative activity against Homo sapiens (human) HUVEC cells at <10 ug/ml after 3 days by cell counting analysis. The data set is classed as functional, cell-based.
Data set [12] relates to HUVEC. In words: Antiangiogenic activity against Homo sapiens (human) HUVEC cells assessed as inhibition of capillary tube formation after 3 days by microscopic analysis. The class given is functional, cell-based.
The test system of data set [13] is HUVEC. In words: Cytotoxicity against Homo sapiens (human) HUVEC cells up to 40 ug/ml after 48 hr by LDH assay. The data set is classed as cell-based.

Calls of active or inactive are those of the source. The rule behind the calls is not given here.

Sequence of Matrix metalloproteinase-9 (Homo sapiens) (P14780 whole entry): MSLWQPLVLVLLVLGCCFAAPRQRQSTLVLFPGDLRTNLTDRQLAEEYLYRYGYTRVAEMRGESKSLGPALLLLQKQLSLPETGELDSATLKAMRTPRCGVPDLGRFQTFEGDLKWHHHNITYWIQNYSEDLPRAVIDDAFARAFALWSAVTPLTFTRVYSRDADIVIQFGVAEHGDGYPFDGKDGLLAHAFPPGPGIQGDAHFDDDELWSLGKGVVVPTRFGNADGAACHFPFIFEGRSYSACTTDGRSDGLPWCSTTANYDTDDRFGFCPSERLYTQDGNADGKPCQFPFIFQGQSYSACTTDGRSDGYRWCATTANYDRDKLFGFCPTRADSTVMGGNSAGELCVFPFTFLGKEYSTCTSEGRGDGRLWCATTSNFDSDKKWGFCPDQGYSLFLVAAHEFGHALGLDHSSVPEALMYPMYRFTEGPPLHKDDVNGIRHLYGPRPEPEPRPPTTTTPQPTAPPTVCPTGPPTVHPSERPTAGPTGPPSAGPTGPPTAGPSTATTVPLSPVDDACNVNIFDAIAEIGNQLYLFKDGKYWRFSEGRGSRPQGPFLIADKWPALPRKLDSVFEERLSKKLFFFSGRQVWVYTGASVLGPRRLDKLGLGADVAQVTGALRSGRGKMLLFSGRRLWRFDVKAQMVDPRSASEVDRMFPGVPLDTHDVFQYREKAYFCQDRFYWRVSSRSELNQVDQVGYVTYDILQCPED
Sequence of 72 kDa type IV collagenase (Homo sapiens) (P08253 110-660 limits assumed): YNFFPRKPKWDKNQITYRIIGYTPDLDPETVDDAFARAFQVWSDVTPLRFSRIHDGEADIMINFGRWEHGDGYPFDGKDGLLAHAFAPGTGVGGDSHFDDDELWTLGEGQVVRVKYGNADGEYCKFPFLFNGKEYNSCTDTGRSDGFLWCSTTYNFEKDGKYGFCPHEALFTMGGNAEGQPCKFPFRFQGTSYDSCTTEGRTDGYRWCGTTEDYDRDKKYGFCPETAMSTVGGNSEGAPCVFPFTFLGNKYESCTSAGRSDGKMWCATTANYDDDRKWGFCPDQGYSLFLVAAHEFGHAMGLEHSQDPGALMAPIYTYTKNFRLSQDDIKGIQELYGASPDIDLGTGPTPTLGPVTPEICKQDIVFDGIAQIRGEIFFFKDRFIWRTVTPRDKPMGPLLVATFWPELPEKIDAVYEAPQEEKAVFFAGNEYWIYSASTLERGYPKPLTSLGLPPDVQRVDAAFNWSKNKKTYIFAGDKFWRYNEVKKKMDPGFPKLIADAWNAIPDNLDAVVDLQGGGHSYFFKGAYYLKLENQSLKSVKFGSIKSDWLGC

Turning to `COc1ccc2c(c1)OC/C(=C\c1ccc(O)c(O)c1)C2=O`, the Activity entry in the data set with HUVEC [1] and in the data set on HUVEC [3] was “Dose-dependent effect” in each case. Moreover, the outcome with HUVEC [2] was inactive.

Regarding `COc1ccc2c(c1)OC/C(=C\c1ccccc1OC)C2=O`, the Activity result with HUVEC [1] and in the data set with HUVEC [3] was “Dose-dependent effect” each time. The result in the data set on HUVEC [2] was inactive.

Consider `COc1ccc2c(c1)OC/C(=C\c1ccc(Cl)cc1)C2=O`, for which the Activity entry in the data set with HUVEC [1] and in the data set on HUVEC [3] was “Dose-dependent effect” in each case. For the same compound, the result with HUVEC [2] was inactive.

For `COc1ccccc1C1C(C#N)=C(N)Oc2cc(N(C)C)ccc21` (centres undefined), the inhibition entry (in data set [4]; in the data set on HUVEC [6]; in data set [8]) was “Active” in each case. Also, the Activity result is “Non-toxic” in the data set on HUVEC [5], “Dose-dependent effect” in the data set with HUVEC [9] and “Non-toxic” in the data set on HUVEC [13]. Also, the inhibition entry (in data set [7]; in the data set on HUVEC [12]) was “Dose-dependent effect” in each case. In addition, the outcome in the data set on HUVEC [10] and in the data set on HUVEC [11] was Active.

For the compound `COc1ccc2c(c1)OC/C(=C\c1ccc(F)cc1)C2=O`, the Activity result with HUVEC [1] and with HUVEC [3] was “Dose-dependent effect” in each case. Also, the result with HUVEC [2] was inactive.

With `COc1ccc2c(c1)OC/C(=C\c1cc(OC)c(O)c(OC)c1)C2=O`, the Activity result in the data set on HUVEC [1] and with HUVEC [3] was “Dose-dependent effect” in each case. Further, the result in the data set with HUVEC [2] was inactive.

For `COc1ccc2c(c1)OC/C(=C\c1ccc(OC)c(OC)c1)C2=O`, the Activity entry in the data set on HUVEC [1] and in the data set on HUVEC [3] was “Dose-dependent effect” throughout. Further, in the data set with HUVEC [2], the outcome was inactive.

Take `COc1ccc(/C=C2\COc3cc(OC)ccc3C2=O)cc1`: the Activity result in the data set with HUVEC [1] and with HUVEC [3] was “Dose-dependent effect” in each case. In the data set on HUVEC [2], the result was inactive.

On to `COc1ccc2c(c1)OC/C(=C\c1ccc(O)cc1)C2=O`, for which the Activity result in the data set on HUVEC [1] and with HUVEC [3] was “Dose-dependent effect” each time. In the data set on HUVEC [2], the outcome was inactive.

Consider `CCCOc1ccc2c(c1)OC/C(=C\c1ccc(O)c(O)c1)C2=O`, for which the Activity entry with HUVEC [1] and in the data set on HUVEC [3] was “Dose-dependent effect” throughout. For the same compound, the result with HUVEC [2] was inactive.

In the case of `CN(C)c1ccc2c(c1)OC(N)=C(C#N)C2c1cccc(C(F)(F)F)c1` (centres undefined), the Activity result with HUVEC [1] and in the data set on HUVEC [3] was “Dose-dependent effect” each time. Besides, the result in the data set on HUVEC [2] was inactive.

Regarding `COc1ccc2c(c1)OC/C(=C\c1ccc(Cl)cc1Cl)C2=O`, the Activity result with HUVEC [1] and with HUVEC [3] was “Dose-dependent effect” in each case. Further, the outcome with HUVEC [2] was inactive.

`CN(C)c1ccc2c(c1)OC(N)=C(C#N)C2c1cccc([N+](=O)[O-])c1` (centres undefined): the Activity result in the data set on HUVEC [1] and in the data set on HUVEC [3] was “Dose-dependent effect” each time. Besides, the outcome in the data set with HUVEC [2] was inactive.

As to `COc1ccc2c(c1)OC/C(=C\c1ccc(C(F)(F)F)cc1)C2=O`, the Activity entry in the data set on HUVEC [1] and with HUVEC [3] was “Dose-dependent effect” throughout. In the data set on HUVEC [2], the outcome was inactive.
